Results published in patent publication US20240139185A1, “COMPOUNDS THAT PARTICIPATE IN COOPERATIVE BINDING AND USES THEREOF” (Revolution Medicines, Inc., priority 2018, published 2024).

How the values were obtained:
cyclophilin A (CYPA) = cyclophilin A (CYPA) (Homo sapiens, UniProt P62937); experiment: CYPA-compound binary complex formation by SPR; conditions: read-out: CYPA Binding Affinity
How it was run: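 CypA-Avi captured on a Biotin CAPture chip (4 μg/ml), reference flow cell subtracted. Compounds injected as 10-point 2-fold dilutions from 50 μM in HBS-P+ pH7.4 with 2% DMSO; 60 s association and 60 s dissociation, solvent-corrected. Affinity obtained by steady-state fitting.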

[1] = biological target: T1, BRAF-GTP-KRAS-G12C complex (Homo sapiens, UniProt P01116+P62937, G12C); experiment: KRAS-BRAF complex disruption through competition with CYPA-compound by TR-FRET; conditions: biochemical BRAF-KRAS G12C-GTP disruption assay EC50, with CYPA
T1 construct: 50 nM of His6-KRas G12C-GTP (1-169); 500 nM of tagless CypA (1-165)
How it was run: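 His6-KRAS G12C-GTP (1-169, 50 nM) with tagless CypA (1-165, 500 nM) was incubated with compound for 3 h at room temperature in pH 7.3 Hepes/NaCl/MgCl2 buffer containing GST-BRAF RBD. Anti-His Eu (10 nM) and anti-GST APC (50 nM) were then added for 1.5 h, and the 665/615 nm TR-FRET ratio was read. EC50 from 4-parameter fit; for specificity, wild-type KRAS replaced G12C, and CypA was omitted to test presenter dependence.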

pERK in H358 cells = experiment: pERK inhibition in H358 cells; format: cell-based, human; conditions: 4 hours treatment, read-out: Cellular pERK inhibition
How it was run: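 Human lung cancer H358 cells in RPMI/10% FBS were exposed to compound or DMSO for 4 h. Fixed and permeabilized cells were stained overnight at 4 C with anti-phospho-ERK1/2 (Thr202/Tyr204). Near-infrared imaging read the pERK signal at 800 nm, with DRAQ5 at 700 nm.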

Structure (SMILES)	Kd (cyclophilin A (CYPA)) [µM]	EC50 [1] [µM]	IC50 (pERK in H358 cells) [µM]
CC1COC(=O)[C@@H]2CCCN(N2)C(=O)[C@@H](NC(=O)[C@H](C(C)C)N(C)C(=O)C2CN(C(=O)CCl)C2)Cc2cc(O)cc(c2)-c2ccc3c(c2)N(CCO3)C1 (single isomer, unassigned) [Compound 183]	5 to 15	0.5 to 5	1 to 10
CC(C)[C@@H](C(=O)N[C@H]1Cc2cc(O)cc(c2)-c2ccc3c(Cl)cn(c3c2)CC(C)(C)COC(=O)[C@@H]2CCCN(N2)C1=O)N(C)C(=O)C1CN(C(=O)CCl)C1 [Compound 104]	> 15	≤ 0.5	≤ 1
CC(C)[C@@H](C(=O)N[C@H]1Cc2cc(O)cc(c2)-c2ccc3c(C(F)F)nn(c3c2)C[C@H](C)COC(=O)[C@@H]2CCCN(N2)C1=O)N(C)C(=O)C1CN(C(=O)CCl)C1 [Compound 202]	≤ 5	≤ 0.5	1 to 10
COCc1nc2ccc3cc2n1CC(C)(C)COC(=O)[C@@H]1CCCN(N1)C(=O)[C@@H](NC(=O)[C@H](C(C)C)N(C)C(=O)C1CN(C(=O)CCl)C1)Cc1cc(O)cc-3c1 [Compound 143]	5 to 15	≤ 0.5	> 10
C=CC(=O)N1CCC(C(=O)N(C)C(C(=O)NC2Cc3cc(O)cc(c3)-c3ccc4c(c3)c(c(C#N)n4CCOC)CC(C)(C)COC(=O)C3CCCN(N3)C2=O)C(C)C)C1 (stereo not drawn) [Compound 400]	5 to 15	≤ 0.5	1 to 10
CCN1CCCN2C[C@H](C)COC(=O)[C@@H]3CCCN(N3)C(=O)[C@@H](NC(=O)[C@H](C(C)C)N(C)C(=O)C3CN(C(=O)CCl)C3)Cc3cc(O)cc(c3)-c3ccc1c2c3 [Compound 187]	5 to 15	> 5	> 10
CC(C)[C@@H](C(=O)N[C@H]1Cc2cc(O)cc(c2)-c2ccc3c(C(C)(C)C#N)cn(c3c2)CC(CC#N)COC(=O)[C@@H]2CCCN(N2)C1=O)N(C)C(=O)C1CN(C(=O)CCl)C1 (stereo partly drawn) [Compound 39]	5 to 15	≤ 0.5	> 10
CC(C)[C@@H](C(=O)N[C@H]1Cc2cc(O)cc(c2)-c2ccc3c(C(C#N)C4CC4)cn(c3c2)C[C@H](C)COC(=O)[C@@H]2CCCN(N2)C1=O)N(C)C(=O)C1CN(C(=O)CCl)C1 (stereo partly drawn) [Compound 78]	5 to 15	≤ 0.5	1 to 10
C=CC(=O)N1CCC(C(=O)N(C)C(C(=O)NC2Cc3cc(O)cc(c3)-c3ccc4c(c3)N(CC(C)COC(=O)C3CCCN(N3)C2=O)CC4(C)C(C)=O)C(C)C)C1 (stereo not drawn) [Compound 391]	≤ 5	> 5	> 10
CC(C)[C@@H](C(=O)N[C@H]1Cc2cc(O)cc(c2)-c2cc3c(ccc(C#N)c3s2)OCCCOC(=O)[C@@H]2CCCN(N2)C1=O)N(C)C(=O)C1CN(C(=O)CCl)C1 [Compound 172]	5 to 15	0.5 to 5	> 10
CC(C)[C@@H](C(=O)N[C@H]1Cc2cc(O)cc(c2)-c2ccc3c(C(C)(C)C#N)cn(c3c2)CC(CO)COC(=O)[C@@H]2CCCN(N2)C1=O)N(C)C(=O)C1CN(C(=O)CCl)C1 (single isomer, unassigned) [Compound 22]	5 to 15	≤ 0.5	> 10
CC1COC(=O)C2CCCN(N2)C(=O)C(NC(=O)C(C(C)C)N(C)C(=O)C2CN(C(=O)CCl)C2)Cc2cc(O)cc(c2)-c2ccc3c(C(C)C#N)cn(c3c2)C1 (stereo not drawn) [Compound 77]	≤ 5	≤ 0.5	≤ 1
CC1COC(=O)C2CCCN(N2)C(=O)C(NC(=O)C(C(C)C)N(C)C(=O)C2CN(C(=O)CCl)C2)Cc2cc(O)cc(c2)-c2ccc3c(c2)N(C1)CC3(C)C#N (mixture of isomers) [Compound 224]	≤ 5	≤ 0.5	1 to 10
C=CC(=O)N1CCC(C(=O)N(C)C(C(=O)NC2Cc3cc(O)cc(c3)-c3ccc4cc(-c5ccccc5COC)n(c4c3)CC(C)(C)COC(=O)C3CCCN(N3)C2=O)C(C)C)C1 (stereo not drawn) [Compound 90]	5 to 15	0.5 to 5	≤ 1
CC#CC(=O)N1CC2(CCN([C@H](C(=O)N[C@H]3Cc4cc(O)cc(c4)-c4ccc5c(C(C)(C)C#N)cn(c5c4)CC(C)(C)COC(=O)[C@@H]4CCCN(N4)C3=O)C(C)C)C2=O)C1 [Compound 259]	5 to 15	0.5 to 5	> 10
C=CC(=O)N1CCC(C(=O)N(C)C(C(=O)NC2Cc3cc(O)cc(c3)-c3ccc4c(c3)c(cn4C(C#N)(CC)CC)CC(C)(C)COC(=O)C3CCCN(N3)C2=O)C(C)CC)C1 (stereo not drawn) [Compound 405]	5 to 15	0.5 to 5	≤ 1
C=CC(=O)N1CCC(C(=O)N(C)C(C(=O)NC2Cc3cc(O)cc(c3)-c3ccc4c(c3)c(cn4-c3cc(COC)ccc3C#N)CC(C)(C)COC(=O)C3CCCN(N3)C2=O)C(C)C)C1 (stereo not drawn) [Compound 393]	5 to 15	0.5 to 5	1 to 10
Cc1cnn(C)c1-c1cn2c3cc(ccc13)-c1cc(O)cc(c1)C[C@H](NC(=O)[C@H](C(C)C)N(C)C(=O)C1CN(C(=O)CCl)C1)C(=O)N1CCC[C@H](N1)C(=O)OCC(C)(C)C2 [Compound 240]	5 to 15	≤ 0.5	1 to 10
Cc1cc2ccc3cc2n1CC(C)(C)COC(=O)[C@@H]1CCCN(N1)C(=O)[C@@H](NC(=O)[C@H](C(C)C)N(C)C(=O)C1CN(C(=O)CCl)C1)Cc1cc(O)cc-3c1 [Compound 103]	> 15	≤ 0.5	1 to 10
CC1COC(=O)C2CCCN(N2)C(=O)C(NC(=O)C(C(C)C)N(C)C(=O)C2CN(C(=O)CCl)C2)Cc2cc(O)cc(c2)-c2ccc3c4c(n(c3c2)C1)COCC4(C)C#N (mixture of isomers) [Compound 62]	5 to 15	≤ 0.5	≤ 1
CC(C)[C@@H](C(=O)N[C@H]1Cc2cc(O)cc(c2)-c2ccc3c(C4CCC4)cn(c3c2)C[C@H](C)COC(=O)[C@@H]2CCCN(N2)C1=O)N(C)C(=O)C1CN(C(=O)CCl)C1 [Compound 118]	> 15	≤ 0.5	1 to 10
C=CC(=O)N1CCN(C(C(=O)NC2Cc3cc(O)cc(c3)-c3ccc4c(C(C)(C)C#N)cn(c4c3)CC(C)(C)COC(=O)C3CCCN(N3)C2=O)C(C)C)C(=O)C1 (stereo not drawn) [Compound 14]	> 15	> 5	> 10
C=CC(=O)N1CCC(C(=O)N(C)C(C(=O)NC2Cc3cc(O)cc(c3)-c3ccc4c(c3)c(c(C#N)n4CC)CC(C)(C)COC(=O)C3CCCN(N3)C2=O)C2CCCC2)C1 (stereo not drawn) [Compound 397]	≤ 5	≤ 0.5	≤ 1
CC(C)[C@@H](C(=O)N[C@H]1Cc2cc(O)cc(c2)-c2ccc3c(CCC#N)cn(c3c2)CC(C)(C)COC(=O)[C@@H]2CCCN(N2)C1=O)N(C)C(=O)C1CN(C(=O)CCl)C1 [Compound 256]	≤ 5	≤ 0.5	≤ 1
CC(C)[C@@H](C(=O)N[C@H]1Cc2cc(O)cc(c2)-c2ccc3c(C(C)(C)C#N)cn(c3c2)CC(CO)COC(=O)[C@@H]2CCCN(N2)C1=O)N(C)C(=O)C1CN(C(=O)CCl)C1 (single isomer, unassigned) [Compound 21]	> 15	0.5 to 5	> 10
CC(C)C(C(=O)NC1Cc2cc(O)cc(c2)-c2ccc3c(C(C)(C)C#N)cn(c3c2)CC(C)(C)COC(=O)C2CCCN(N2)C1=O)N1CCC2(CN(C(=O)CCl)C2)C1=O (stereo not drawn) [Compound 44]	5 to 15	≤ 0.5	1 to 10
CC(C)[C@@H](C(=O)N[C@H]1Cc2cc(O)nc(c2)-c2ccc3c(C(C)(C)C#N)cn(c3c2)CC(C)(C)COC(=O)[C@@H]2CCCN(N2)C1=O)N(C)C(=O)C1CN(C(=O)CCl)C1 [Compound 339]	≤ 5	> 5	> 10
Cc1c(C#N)c2ccc3cc2n1CC(C)(C)COC(=O)[C@@H]1CCCN(N1)C(=O)[C@@H](NC(=O)[C@H](C(C)C)N(C)C(=O)C1CN(C(=O)CCl)C1)Cc1cc(O)cc-3c1 [Compound 106]	5 to 15	≤ 0.5	1 to 10
